Experimental data taken from US10988465B2, “CXCR4 inhibitors and uses thereof” (X4 Pharmaceuticals, Inc., priority 2016, dated 2021).
pIC50: −log10 of the molar value.

Experiments:
[1] = target: T1, CXCR-4 transfected U87 cell line (U87.CXCR4) (Homo sapiens, UniProt P61073); assay: Intracellular CXCL-12-induced calcium mobilization assay (FLIPR); type: cell-based; settings: U87.CXCR4 cells; CXCL-12 25-50 ng/mL; compound added 15 min before; read-out: IC50 CXCL-12 Ca^2+ flux U87.CXCR4+
T1 construct: expressed in transfected cells; host or cells: U87 (U87.CXCR4)
T1 sequence (P61073 whole entry): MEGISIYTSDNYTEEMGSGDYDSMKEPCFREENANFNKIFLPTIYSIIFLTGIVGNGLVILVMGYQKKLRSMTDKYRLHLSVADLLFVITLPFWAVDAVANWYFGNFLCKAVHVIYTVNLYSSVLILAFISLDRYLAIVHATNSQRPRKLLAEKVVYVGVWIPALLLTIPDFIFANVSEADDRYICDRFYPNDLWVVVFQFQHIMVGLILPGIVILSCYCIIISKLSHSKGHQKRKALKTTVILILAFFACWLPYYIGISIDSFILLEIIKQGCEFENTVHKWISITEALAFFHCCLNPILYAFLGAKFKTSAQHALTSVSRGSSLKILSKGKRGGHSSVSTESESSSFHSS
Experimental: Example 36: REGA Screening Assay
Intracellular CXCL-12-Induced Calcium Mobilization Assay
Intracellular calcium mobilization induced by chemokines or chemokine-derived peptides were evaluated using a calcium responsive fluorescent probe and a FLIPR system. The CXCR-4 transfected U87 cell line (U87.CXCR4) cells were seeded in gelatine-coated black-wall 96-well plates at 20,000 cells per well and incubated for 12 hours. Cells were then loaded with the fluorescent calcium probe Fluo-2 acetoxymethyl at 4 μM final concentration in assay buffer (Hanks' balanced salt solution with 20 mM HEPES buffer and 0.2% bovine serum albumin, pH 7.4) for 45 min at 37° C. The intracellular calcium mobilization induced by the CXCL-12 (25-50 ng/mL) was then measured at 37° C. by monitoring the fluorescence as a function of time in all the wells simultaneously using a fluorometric imaging plate reader (FLIPR Tetra, Molecular Devices).

[2] = target: T2, Jurkat cells expressing CXCR4 (Homo sapiens, UniProt P61073); assay: Chemokine (CXCL12-AF647) binding inhibition assay; settings: CXCL12-AF647 25 ng/mL, read-out: IC50 CXCL-12 binding Jurkat
T2 construct: endogenous in cells; host or cells: Jurkat
T2 sequence (P61073 whole entry): as above
Experimental: Chemokine (CXCL12-AF647) Binding Inhibition Assay
Jurkat cells expressing CXCR4 were washed once with assay buffer (Hanks' balanced salt solution with 20 mM HEPES buffer and 0.2% bovine serum albumin, pH 7.4) and then incubated for 15 min at room temperature with the test compounds diluted in assay buffer at dose-dependent concentrations. Subsequently, CXCL12-AF647 (25 ng/mL) was added to the compound-incubated cells. The cells were incubated for 30 min at room temperature. Thereafter, the cells were washed twice in assay buffer, fixed in 1% paraformaldehyde in PBS, and analyzed on the FL4 channel of a FACSCalibur flow cytometer equipped with a 635-nm red diode laser (Becton Dickinson, San Jose, Calif., USA).
The percentages of inhibition of CXCL12-AF647 binding were calculated according to the formula: [1−((MFI−MFINC)/(MFIPC−MFINC))]×100 where MFI is the mean fluorescence intensity of the cells incubated with CXCL12-AF647 in the presence of the inhibitor, MFINC is the mean fluorescence intensity measured in the negative control (i.e., autofluorescence of unlabeled cells), and MFIPC is the mean fluorescence intensity of the positive control (i.e., cells exposed to CXCL12-AF647 alone).

in vitro = settings: human, Caco-2, pH 7.4
Experimental: Example 37: Caco-2 Permeability Assay
The goal of this assay was to evaluate the intestinal absorption potential of drug candidates using Caco-2 cell lines.
HBSS buffer with 0.3% DMSO and 5 μM LY: add 150 μL DMSO and 50 μL LY (5 mM) into 50 ml HBSS buffer (pH 7.4).
HBSS buffer with 0.1% DMSO and 5 μM LY: add 50 μL DMSO and 50 μL LY (5 mM) into 50 mL HBSS buffer (pH 7.4).
HBSS buffer with 0.3% DMSO: add 150 μL DMSO into 50 ml HBSS buffer (pH 7.4).
HBSS buffer with 0.1% DMSO: add 50 μL DMSO into 50 ml HBSS buffer (pH 7.4).
Prepare HBSS buffer with 0.4% DMSO: add 200 μL DMSO into 50 ml HBSS buffer (pH 7.4).
Prepare HBSS buffer with 0.4% DMSO and 5 μM LY: add 200 μL DMSO and 50 μL LY (5 mM) into 50 ml HBSS buffer (pH 7.4).
4. Measure TEER Take cell culture plate out of incubator, wash the cell monolayers with HBSS buffer, and then measure TEER values at Rm temperature. 5. Centrifuge Centrifuge the compound solution (from step 3) at 4000 rpm for 5 min before loading to donor chambers. 6. Dosing Add solution based on the volumes listed in the following table (make sure to take extra 100 μL of donor sample for T0 as Backup).
7. Apical LYT0 samples To determine LY concentration in the apical chember, take 100 μL sample from apical chambers into an opaque plate for LYT0. 8. Prewarm Prewarm apical and basolateral plates at 37° C. for about 5 min, then begin transport by placing the apical plate onto basolateral plate. 9. Incubation Keep the plates in incubator at 37° C. for 90 min. 10. Standard Curve preparation
11. Transport termination Separate the apical plate from the basolateral plate after 90-min incubation.
Receiver sample: 60 μL of receiver sample+60 μL ACN with IS (Osalmid or Imipramine)
Study details: Test concentration 10 μM
Test systems: Caco-2/HBSS solution
Incubation conditions: 0, 90 min at 37° C.
Sample size: Duplicates (n=2)
Bioanalytical method: LC-MS/MS
For Millicell-24 Cell Culture Plates: surface area of the membrane=0.7 cm^2, VA=0.8 mL (A-to-B) or 0.4 mL (B-to-A)
1. Papp values were calculated based on calculated concentrations.
The compound numbers correspond to the compound numbers in Table 1.

SMILES	pIC50 [1]	pIC50 [2]	Papp A→B at 90 min, 10 μM (in vitro)	Papp B→A at 90 min, 10 μM (in vitro)	efflux ratio at 90 min, 10 μM (in vitro)
Cc1cccnc1[C@@H]1CCC[C@H](c2nc3cccc(N4CCNC(C)C4)c3[nH]2)N1C (stereo partly drawn) [I-50]	7.00 to 11.00	7.00 to 11.00	0.1 to 10 ×10⁻⁶ cm/s	10 to 30 ×10⁻⁶ cm/s	10 to 30
CN1CCN(c2cccc3nc([C@H]4CCC[C@@H](c5ncccc5Br)N4C)[nH]c23)CC1 [I-28, 2-((2R,6S)-6-(3-bromopyridin-2-yl)-1-methylpiperidin-2-yl)-7-(4-methylpiperazin-1-yl)-1H-benzo[d]imidazole]	6.00 to 7.00	7.00 to 11.00	0.1 to 10 ×10⁻⁶ cm/s	0.1 to 10 ×10⁻⁶ cm/s	0.1 to 10
Cc1cccnc1[C@@H]1CCC[C@H](c2nc3ccccc3n2CCCN2CCN(C)CC2)N1C [I-17, 2-((2R,6S)-1-methyl-6-(3-methylpyridin-2-yl)piperidin-2-yl)-1-(3-(4-methylpiperazin-1-yl)propyl)-1H-benzo[d]imidazole]	7.00 to 11.00	7.00 to 11.00	0.1 to 10 ×10⁻⁶ cm/s	0.1 to 10 ×10⁻⁶ cm/s	0.1 to 10
CN(C)CCCn1ccnc1[C@H]1CCC[C@@H](c2ncccc2Cl)N1C [I-169]	6.00 to 7.00	7.00 to 11.00	0.1 to 10 ×10⁻⁶ cm/s	> 30 ×10⁻⁶ cm/s	0.1 to 10
Cc1cccnc1[C@@H]1CCC[C@H](c2nc3ccccc3n2C2CCN(C)CC2)N1 [I-131]	6.00 to 7.00	7.00 to 11.00	0.1 to 10 ×10⁻⁶ cm/s	10 to 30 ×10⁻⁶ cm/s	0.1 to 10
Clc1cccnc1[C@@H]1CCC[C@H](c2nc3cccc(N4CCN(C5CC5)CC4)c3[nH]2)N1 [I-143]	7.00 to 11.00	7.00 to 11.00	10 to 30 ×10⁻⁶ cm/s	10 to 30 ×10⁻⁶ cm/s	0.1 to 10
Cc1ccnnc1[C@@H]1CCC[C@H](c2nc3cccc(N4CCN(C)CC4)c3[nH]2)N1C [I-84]	≤ 6.00	6.00 to 7.00	0.1 to 10 ×10⁻⁶ cm/s	10 to 30 ×10⁻⁶ cm/s	10 to 30
Cc1cccnc1[C@@H]1CCC[C@H](c2nc3ccccc3n2CCCN(C)C)N1 [I-155]	≤ 6.00	7.00 to 11.00	0.1 to 10 ×10⁻⁶ cm/s	> 30 ×10⁻⁶ cm/s	0.1 to 10
CN1CCC(n2ccnc2[C@H]2CCC[C@@H](c3ncccc3Cl)N2)CC1 [I-172]	≤ 6.00	≤ 6.00	10 to 30 ×10⁻⁶ cm/s	10 to 30 ×10⁻⁶ cm/s	0.1 to 10
CN1CCC(n2c([C@H]3CCC[C@@H](c4ncccc4Cl)N3)nc3ccccc32)CC1 [I-135]	7.00 to 11.00	7.00 to 11.00	10 to 30 ×10⁻⁶ cm/s	10 to 30 ×10⁻⁶ cm/s	0.1 to 10
Cc1cccnc1[C@@H]1CCC[C@H](c2nc3cccc(Oc4cccnc4)c3[nH]2)N1C [I-77]	≤ 6.00	6.00 to 7.00	–	–	–
CN1CCN(c2cccc3nc([C@H]4CCC[C@@H](c5ncccc5C5CC5)N4C)[nH]c23)CC1 (stereo in doubt) [I-61]	7.00 to 11.00	7.00 to 11.00	10 to 30 ×10⁻⁶ cm/s	10 to 30 ×10⁻⁶ cm/s	0.1 to 10
Cc1cccnc1[C@@H]1CCC[C@H](c2nc3ccccc3n2Cc2ccccc2-n2cccn2)N1 [I-161]	≤ 6.00	6.00 to 7.00	> 30 ×10⁻⁶ cm/s	> 30 ×10⁻⁶ cm/s	0.1 to 10
Cc1cccnc1[C@@H]1CCC[C@H](c2nc3ccccc3n2CCCNC2CCOCC2)N1C [I-19, N-(3-(2-((2R,6S)-1-methyl-6-(3-methylpyridin-2-yl)piperidin-2-yl)-1H-benzo[d]imidazol-1-yl)propyl)tetrahydro-2H-pyran-4-amine]	7.00 to 11.00	7.00 to 11.00	0.1 to 10 ×10⁻⁶ cm/s	10 to 30 ×10⁻⁶ cm/s	0.1 to 10
CNCCCn1c([C@H]2CCC[C@@H](c3ncccc3C)N2C)nc2ccccc21 [I-16, N-methyl-3-(2-((2R,6S)-1-methyl-6-(3-methylpyridin-2-yl)piperidin-2-yl)-1H-benzo[d]imidazol-1-yl)propan-1-amine]	7.00 to 11.00	7.00 to 11.00	0.1 to 10 ×10⁻⁶ cm/s	10 to 30 ×10⁻⁶ cm/s	> 30
Cc1cccnc1[C@@H]1CCC[C@H](c2nc3cccc(Oc4ccncc4)c3[nH]2)N1C [I-78]	≤ 6.00	≤ 6.00	–	–	–
Cc1cccnc1[C@@H]1CCCC(c2nccn2CCCc2ccccn2)N1 (stereo in doubt) [I-178]	≤ 6.00	6.00 to 7.00	–	–	–
Cc1cccnc1[C@@H]1CCC[C@H](c2nc3ccccc3n2CCCO)N1C [I-20, 3-(2-((2R,6S)-1-methyl-6-(3-methylpyridin-2-yl)piperidin-2-yl)-1H-benzo[d]imidazol-1-yl)propan-1-ol]	6.00 to 7.00	7.00 to 11.00	–	–	–
Cc1cccnc1[C@@H]1CCC[C@H](c2nc3ccccc3n2CCn2ccnc2)N1C [I-6, 1-(2-(1H-imidazol-1-yl)ethyl)-2-((2R,6S)-1-methyl-6-(3-methylpyridin-2-yl)piperidin-2-yl)-1H-benzo[d]imidazole]	6.00 to 7.00	7.00 to 11.00	–	–	–
COCCc1ccc(OCC(O)CNC(C)C)cc1 (stereo not drawn) [Metoprolol, reference compound]	–	–	> 10 ×10⁻⁶ cm/s	> 10 ×10⁻⁶ cm/s	–
Cc1cccnc1[C@@H]1CCC[C@H](c2nc3ccccc3n2CCCO)N1 [I-156]	≤ 6.00	6.00 to 7.00	–	–	–
COCCCn1c([C@H]2CCC[C@@H](c3ncccc3C)N2C)nc2ccccc21 [I-157]	≤ 6.00	7.00 to 11.00	–	–	–
Cc1cccc(F)c1[C@@H]1CCC[C@H](c2nc3cccc(N4CCN(C)CC4)c3[nH]2)N1C [I-138]	≤ 6.00	≤ 6.00	–	–	–
Cc1cccnc1[C@@H]1CCC[C@H](c2nc3ccccc3n2CCc2ccccn2)N1C [I-8, 2-((2R,6S)-1-methyl-6-(3-methylpyridin-2-yl)piperidin-2-yl)-1-(2-(pyridin-2-yl)ethyl)-1H-benzo[d]imidazole]	≤ 6.00	6.00 to 7.00	–	–	–
CCN1CCN(c2cccc3nc([C@H]4CCC[C@@H](c5ncccc5C(F)(F)F)N4C)[nH]c23)CC1 (relative stereo) [I-59]	≤ 6.00	7.00 to 11.00	–	–	–
CN1CCN(c2cccc3nc([C@H]4CCC[C@@H](c5ncccc5Cl)N4)n(C)c23)CC1 [I-124]	7.00 to 11.00	7.00 to 11.00	–	–	–
Cc1cccnc1[C@@H]1CCC[C@H](c2nc3ccccc3n2CCCCN)N1C [I-4, 4-(2-((2R,6S)-1-methyl-6-(3-methylpyridin-2-yl)piperidin-2-yl)-1H-benzo[d]imidazol-1-yl)butan-1-amine]	7.00 to 11.00	7.00 to 11.00	–	–	–
